{
  "source": "patent US20070277254A1",
  "about": "“Method for Increasing Ploidy in a Plant” (priority 2003, published 2007)",
  "key": {"[1]": {"test_system": "apical buds of budded plants", "conditions": "normal techniques (comparison; about 10x lower colchicine concentration); cited from earlier work"}, "[2]": {"test_system": "apical buds of budded plants", "assay": "Ploidy increase in buds treated with colchicine, stomata on leaves counted per unit area and compared to the parent", "format": "in vivo", "conditions": "twice daily for five days minimum", "procedure": "Firstly, the plants are budded (on a selected root stock), then they are held in a dormant state and the appropriate chill requirement is given in a cool room (if required). The plants are then removed to a warm environment to prime the bud (which is still dormant). This is continued up to the point at which dormancy is “broken”, cell division is commenced. The bud is then wrapped in absorbent substance, the absorbent material is injected with a 1% aqueous solution of the colchicine drug. Note that this is 10× higher concentration than normal treatments. A plastic surround is used to enclose the bud, to keep it moist but exposed to the drug. This treatment is repeated twice daily for five days minimum.\nIn a next step, to determine whether a ploidy increase has resulted, the stomata on leaves are counted per unit area and compared to the parent. Unexpectedly, it is observed that between 10-20% of the apical buds have their ploidy level increased as a result of this process (compared with only approx 1% in normal techniques). Thus, for example, in citrus, plant leaves become shorter, thicker, wider and oil glands become more prominent."}},
  "note": "Read-outs that look alike come from different tables or passages of the source.",
  "data": [
    {"smiles": "COc1cc2c(c(OC)c1OC)-c1ccc(OC)c(=O)cc1[C@@H](NC(C)=O)CC2", "note": "[colchicine]", "values": [
      {"measurement": "apical buds having their ploidy level increased", "setting": "[1]", "result": "approx 1%"},
      {"measurement": "apical buds having their ploidy level increased", "setting": "[2]; 1% aqueous solution of colchicine injected into absorbent wrap around bud at break of dormancy", "result": "10-20%"},
      {"measurement": "effect on original growing point (main bud)", "setting": "[2]; 1% aqueous solution of colchicine", "result": "generally killed"}
    ]}
  ]
}
